Results on five molecules are retold here after patent publication US20140323504A1, “Pyrazolo[4,3-c]Pyridine Derivatives As Kinase Inhibitors” (Cellzome Limited, priority 2011, published 2014).

For one assay, the target named is T1, JAK3 (Homo sapiens, UniProt P52333).
T1 sequence (P52333 1-1124): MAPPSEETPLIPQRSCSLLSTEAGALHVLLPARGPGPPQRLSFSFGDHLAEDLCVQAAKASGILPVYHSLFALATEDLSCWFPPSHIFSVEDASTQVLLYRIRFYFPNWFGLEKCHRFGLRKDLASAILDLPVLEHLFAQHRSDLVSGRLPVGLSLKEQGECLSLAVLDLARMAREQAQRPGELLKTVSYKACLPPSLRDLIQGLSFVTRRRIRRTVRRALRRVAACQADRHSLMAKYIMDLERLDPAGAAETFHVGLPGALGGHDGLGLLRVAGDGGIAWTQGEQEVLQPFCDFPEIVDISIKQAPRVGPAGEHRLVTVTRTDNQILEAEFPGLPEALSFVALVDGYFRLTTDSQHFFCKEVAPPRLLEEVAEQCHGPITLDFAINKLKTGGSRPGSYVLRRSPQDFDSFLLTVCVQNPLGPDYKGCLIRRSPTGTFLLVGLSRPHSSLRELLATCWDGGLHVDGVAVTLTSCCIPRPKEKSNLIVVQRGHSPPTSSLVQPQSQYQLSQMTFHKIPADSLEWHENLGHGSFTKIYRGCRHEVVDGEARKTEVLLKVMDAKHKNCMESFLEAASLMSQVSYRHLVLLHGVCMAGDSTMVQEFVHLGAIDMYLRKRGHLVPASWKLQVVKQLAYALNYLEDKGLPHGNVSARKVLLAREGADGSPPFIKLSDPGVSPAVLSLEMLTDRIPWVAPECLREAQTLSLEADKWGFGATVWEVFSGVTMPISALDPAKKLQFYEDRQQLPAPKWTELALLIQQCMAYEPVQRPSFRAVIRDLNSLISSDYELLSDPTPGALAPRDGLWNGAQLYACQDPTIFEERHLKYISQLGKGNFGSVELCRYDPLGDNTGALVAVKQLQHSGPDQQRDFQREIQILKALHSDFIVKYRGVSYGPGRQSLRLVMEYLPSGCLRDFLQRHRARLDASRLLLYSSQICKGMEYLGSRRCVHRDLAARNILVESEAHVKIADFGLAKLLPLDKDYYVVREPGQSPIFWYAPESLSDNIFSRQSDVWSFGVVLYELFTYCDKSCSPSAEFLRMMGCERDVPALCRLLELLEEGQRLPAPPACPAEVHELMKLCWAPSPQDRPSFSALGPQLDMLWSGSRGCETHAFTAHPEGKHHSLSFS
Put plainly: Radiometric protein kinase assay (33PanQinase, ProQinase), JAK3. As to conditions: read-out: JAK3 enzyme assay IC50. The class given is biochemical. Details: endogenous in cells; host or cells: mixed Molt4/Ramos cell lysate (1:2). The protocol:
A radiometric protein kinase assay (^33PanQinase® Activity Assay; ProQinase GmbH, Freiburg, Germany) was used for measuring the kinase activity of the protein kinases BLK, BTK, ITK and JAK3. All kinase assays were performed in 96-well FlashPlates™ from PerkinElmer (Boston, Mass., USA) in a 50 μl reaction volume. The reaction cocktail was pipetted in four steps in the following order: • 20 μl of assay buffer (standard buffer) • 5 μl of ATP solution (in H2O) • 5 μl of test compound (in 10% DMSO) • 10 μl of substrate/10 μl of enzyme solution (premixed)
The reaction cocktails were incubated at 30° C. for 60 minutes. The reaction was stopped with 50 μl of 2% (v/v) H3PO4, plates were aspirated and washed two times with 200 μl 0.9% (w/v) NaCl. Incorporation of ^33Pi was determined with a microplate scintillation counter (Microbeta, Wallac). All assays were performed with a BeckmanCoulter/SAGIAN™ Core System.

The target in another assay is T2, BLK (Homo sapiens, UniProt P51451).
T2 construct: endogenous in cells; host or cells: 1:1 mix of Jurkat and Ramos cell lysates
The experiment in a line: Kinobeads assay with quantitative mass spectrometry, BLK. It counts as binding. As to conditions: Jurkat/Ramos lysate, read-out: BLK inhibition value (IC50). The protocol: Selected compounds of the present invention as described in the previous examples were tested in a Kinobeads™ assay as described (WO-A 2006/134056; Bantscheff et al., 2007. Nature Bioteclmol. 25, 1035-1044).
Compounds were incubated with cell lysate aliquots (1:1 mix of Jurkat and Ramos cell lysates) for 45 minutes at 4° C. and allowed to bind to the proteins in the lysate sample. Then the Kinobeads™ affinity matrix was added to capture proteins that were not interacting with the previously added compound. After this two hour incubation step at 4° C. beads were separated from the lysate and bead bound proteins were eluted in SDS sample buffer and subsequently separated by SDS-Polyacrylamide gel electrophoresis. The gel was stained with colloidal Coomassie and stained areas of each gel lane were cut out and subjected to in-gel proteolytic digestion with trypsin. Peptides originating from the different gel areas were labeled with isobaric tagging reagents (TMT reagents, Thermofisher) as shown in Table 7. The TMT reagents are a set of multiplexed, amine-specific, stable isotope reagents that can label peptides in up to six different biological samples enabling simultaneous identification and quantitation of peptides. The combined samples were fractionated using reversed-phase chromatography at pH 11 and fractions were subsequently analyzed with a nano-flow liquid chromatography system coupled online to a tandem mass spectrometer (LC-MSMS) experiment followed by reporter ion quantification in the MSMS spectra (Ross et al., 2004. Mol. Cell. Proteomics 3(12):1154-1169; Dayon et al., 2008. Anal. Chem. 80(8):2921-2931; Thompson et al., 2003. Anal. Chem. 75(8):1895-1904). Further experimental protocols can be found in WO2006/134056 and previous publications (Bantscheff et al., 2007. Nat. Biotechnol. 25, 1035-1044; Bantscheff et al., 2011. Nat. Biotechnol. 29(3):255-265).

T2 sequence (P51451 whole entry): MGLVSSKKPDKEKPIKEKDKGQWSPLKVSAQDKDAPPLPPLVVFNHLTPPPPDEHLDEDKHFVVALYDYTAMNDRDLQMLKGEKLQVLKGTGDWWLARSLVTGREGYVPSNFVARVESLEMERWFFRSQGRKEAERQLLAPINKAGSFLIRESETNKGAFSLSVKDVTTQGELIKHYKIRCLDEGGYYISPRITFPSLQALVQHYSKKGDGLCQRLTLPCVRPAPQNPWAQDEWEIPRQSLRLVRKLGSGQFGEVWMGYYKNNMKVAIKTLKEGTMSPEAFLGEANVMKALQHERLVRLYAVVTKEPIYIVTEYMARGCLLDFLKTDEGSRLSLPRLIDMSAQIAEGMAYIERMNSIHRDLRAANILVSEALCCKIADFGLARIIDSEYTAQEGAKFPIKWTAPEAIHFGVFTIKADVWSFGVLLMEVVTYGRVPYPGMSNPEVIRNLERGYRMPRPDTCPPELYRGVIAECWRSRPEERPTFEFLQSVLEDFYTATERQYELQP

As usually defined, the IC50 is the concentration at which inhibition is half-maximal. On to `C=CC(=O)Nc1cccc(Cn2ncc3cnc(Nc4cnn(C)c4)nc32)c1` [Example 1, N-(3-((6-((1-Methyl-1H-pyrazol-4-yl)amino)-1H-pyrazolo[3,4-d]pyrimidin-1-yl)methyl)phenyl)acrylamide], for which the values for the half-maximal inhibitory concentration (IC50) at JAK3 and at BLK were 3 nM and 20 nM, respectively. For `C=CC(=O)Nc1cc(Cn2ncc3cnc(Nc4cnn(C)c4)nc32)ccc1F` [Example 2, […]], the IC50 at BLK was 406 nM. Consider `C#CC(=O)Nc1cccc(Cn2ncc3cnc(Nc4cnn(C)c4)nc32)c1` [Example 3, N-(3-((6-((1-Methyl-1H-pyrazol-4-yl)amino)-1H-pyrazolo[3,4-d]pyrimidin-1-yl)methyl)phenyl)propiolamide], for which the IC50 at JAK3 was 4 nM; at BLK it was 12 nM. `C=CS(=O)(=O)Nc1cccc(Cn2ncc3cnc(Nc4cnn(C)c4)nc32)c1` [Example 4, N-(3-((6-((1-Methyl-1H-pyrazol-4-yl)amino)-1H-pyrazolo[3,4-d]pyrimidin-1-yl)methyl)phenyl)ethenesulfonamide]: the half-inhibitory concentration (IC50) at JAK3 was found to be 7 nM. The same measure, in the same setting: the value for `CC(=O)Nc1cccc(Cn2ncc3cnc(Nc4cnn(C)c4)nc32)c1` [compound 2, N-(3-((6-((1-methyl-1H-pyrazol-4-yl)amino)-1H-pyrazolo[3,4-d]pyrimidin-1-yl)methyl)phenyl)acetamide, reference compound] was 290 nM.
